Data published in ChEMBL document CHEMBL1159114, “Novel bis-arylsulfonamides and aryl sulfonimides as inactivators of plasminogen activator inhibitor-1 (PAI-1)” (Bioorg Med Chem Lett, 2010).

Tests used:
[1] = target: T1, Plasminogen activator inhibitor 1 (Homo sapiens, UniProt P05121); assay: Inhibition of human recombinant PAI1 assessed as rate of AMC release after 30 mins
Antithrombin-III = Antithrombin-III (Homo sapiens, UniProt P01008); assay: Inhibition of antithrombin-3 assessed as residual alpha-thrombin activity
Antithrombin-III, sequence (P01008 whole entry): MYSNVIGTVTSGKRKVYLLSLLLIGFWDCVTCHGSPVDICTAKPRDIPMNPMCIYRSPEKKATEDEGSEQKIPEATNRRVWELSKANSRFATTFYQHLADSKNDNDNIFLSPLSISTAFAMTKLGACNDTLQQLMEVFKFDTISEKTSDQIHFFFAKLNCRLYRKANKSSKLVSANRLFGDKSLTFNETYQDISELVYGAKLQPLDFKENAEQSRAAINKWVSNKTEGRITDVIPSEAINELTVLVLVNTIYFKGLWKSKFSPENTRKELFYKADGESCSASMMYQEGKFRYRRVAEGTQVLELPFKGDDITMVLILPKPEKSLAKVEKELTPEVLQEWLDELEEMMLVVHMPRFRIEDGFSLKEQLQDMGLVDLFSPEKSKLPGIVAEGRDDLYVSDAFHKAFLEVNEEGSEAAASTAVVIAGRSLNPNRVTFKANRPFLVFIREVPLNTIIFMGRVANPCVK

[2] = target: T1, Plasminogen activator inhibitor 1; assay: Inhibition of human recombinant PAI1 assessed as rate of AMC release at 300 uM after 30 mins

T1 sequence (P05121 whole entry): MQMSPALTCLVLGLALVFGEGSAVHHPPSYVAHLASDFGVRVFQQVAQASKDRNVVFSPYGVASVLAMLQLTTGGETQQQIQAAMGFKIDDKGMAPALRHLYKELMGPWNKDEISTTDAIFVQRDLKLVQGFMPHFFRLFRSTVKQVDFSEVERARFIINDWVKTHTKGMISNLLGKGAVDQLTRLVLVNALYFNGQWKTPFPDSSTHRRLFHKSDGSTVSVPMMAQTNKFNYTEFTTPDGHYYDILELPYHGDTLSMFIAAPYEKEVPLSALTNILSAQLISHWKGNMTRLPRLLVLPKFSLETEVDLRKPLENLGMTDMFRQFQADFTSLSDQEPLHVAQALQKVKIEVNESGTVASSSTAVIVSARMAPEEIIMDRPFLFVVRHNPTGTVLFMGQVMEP

SMILES | IC50 [1] | IC50 (Antithrombin-III) | inhibition [2]
CCCN(S(=O)(=O)c1ccc(O)c(O)c1)S(=O)(=O)c1ccc(O)c(O)c1 | 2.67 µM | > 1000 µM | 
O=S(=O)(c1ccc(O)c(O)c1)N1CCN(S(=O)(=O)c2ccc(O)c(O)c2)CC1 | > 300 µM | > 300 µM | < 30%
CCN(CCN(CC)S(=O)(=O)c1ccc(OC)c(OC)c1)S(=O)(=O)c1ccc(OC)c(OC)c1 | > 300 µM | > 300 µM | 
CCN(CCN(CC)S(=O)(=O)c1ccccc1)S(=O)(=O)c1ccccc1 | > 300 µM | > 300 µM | 
O=S(=O)(NCCCCCCNS(=O)(=O)c1ccc(O)c(O)c1)c1ccc(O)c(O)c1 | 1380 µM | > 3000 µM | 
CCN(CCN(CC)S(=O)(=O)c1ccc(O)cc1)S(=O)(=O)c1ccc(O)cc1 | > 300 µM | > 300 µM | 
CCN(CCN(CC)S(=O)(=O)c1cccc(O)c1)S(=O)(=O)c1cccc(O)c1 | 343 µM | > 1000 µM | 
CCN(CCN(CC)S(=O)(=O)c1cc(F)c(O)c(F)c1)S(=O)(=O)c1cc(F)c(O)c(F)c1 | 128 µM | > 3000 µM | 
CCCCCCN(S(=O)(=O)c1ccc(O)c(O)c1)S(=O)(=O)c1ccc(O)c(O)c1 | 0.284 µM | > 300 µM | 
O=S(=O)(NCCNS(=O)(=O)c1ccc(O)c(O)c1)c1ccc(O)c(O)c1 | 518 µM | > 3000 µM | 
CCN(CCN(CC)S(=O)(=O)c1cc(O)ccc1O)S(=O)(=O)c1cc(O)ccc1O | > 300 µM | > 300 µM | < 30%
O=S(=O)(c1ccc(O)c(O)c1)N(Cc1ccccc1)S(=O)(=O)c1ccc(O)c(O)c1 | 4.82 µM | > 300 µM | 
O=S(=O)(NCCCCNS(=O)(=O)c1ccc(O)c(O)c1)c1ccc(O)c(O)c1 | > 3000 µM | > 3000 µM | 
CCN(CCN(CC)S(=O)(=O)c1ccc(O)c(O)c1)S(=O)(=O)c1ccc(O)c(O)c1 | 9.32 µM | > 1000 µM | 
O=S(=O)(c1ccc(O)c(O)c1)N(C1CCCCC1)S(=O)(=O)c1ccc(O)c(O)c1 | 0.594 µM | > 300 µM | 
